According to US20200405696A1, “INHIBITORS OF INDOLEAMINE 2,3-DIOXYGENASE AND/OR TRYPTOPHAN 2,3-DIOXYGENASE” (IDORSIA PHARMACEUTICALS LTD, priority 2018, published 2020):

Columns and labels:
[1] = molecular target: T1, Recombinant full-length human IDO1 (Homo sapiens, UniProt P14902); assay: IDO1 enzymatic assay (NFK quantified by LCMS); assay type: biochemical; settings: 2 nM enzyme, 5 μM L-tryptophan, pH6.5, 30 minutes pre-incubation at RT; mean values when measured multiple times; read-out: hIDO activity (IC50 in nM)
T1 construct: Recombinant full-length human IDO1 with a N-terminal hexahistidine tag; hexahistidine (His6) (N); made in house; host or cells: E. coli
T1 sequence (P14902 whole entry): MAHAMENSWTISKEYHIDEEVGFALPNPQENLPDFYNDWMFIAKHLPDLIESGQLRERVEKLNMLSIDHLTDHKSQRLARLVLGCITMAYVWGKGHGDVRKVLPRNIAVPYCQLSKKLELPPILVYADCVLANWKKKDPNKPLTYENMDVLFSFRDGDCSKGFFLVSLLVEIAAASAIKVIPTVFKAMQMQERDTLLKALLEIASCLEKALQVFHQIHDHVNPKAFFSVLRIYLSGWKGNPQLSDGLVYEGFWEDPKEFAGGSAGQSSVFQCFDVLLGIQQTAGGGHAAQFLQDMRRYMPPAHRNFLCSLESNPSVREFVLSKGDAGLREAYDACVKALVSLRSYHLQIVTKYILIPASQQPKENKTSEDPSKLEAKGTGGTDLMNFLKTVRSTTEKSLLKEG
Method in brief: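 His-tagged human IDO1 (2 nM) in pH 6.5 phosphate buffer with ascorbate, methylene blue and catalase was preincubated with compound (10 μM–0.5 nM, 0.6% DMSO) for 30 min at RT. The reaction then ran with 5 μM L-Trp for 30 min. NFK was measured by LCMS against a d5-Trp standard, and IC50 was obtained by four-parameter fit.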

[2] = molecular target: T2, Recombinant human TDO comprising amino acids 19-407 (Homo sapiens, UniProt P48775); assay: TDO2 enzymatic assay (NFK quantified by LCMS); assay type: biochemical; settings: 15 nM enzyme, 200 μM L-tryptophan, pH7, 30 minutes pre-incubation at RT; mean values when measured multiple times; read-out: hTDO activity (IC50 in nM)
T2 construct: Recombinant human TDO comprising amino acids 19-407 with a N-terminal hexahistidine tag; hexahistidine (His6) (N); made in house; host or cells: E. coli
T2 sequence (P48775 19-406 limits assumed): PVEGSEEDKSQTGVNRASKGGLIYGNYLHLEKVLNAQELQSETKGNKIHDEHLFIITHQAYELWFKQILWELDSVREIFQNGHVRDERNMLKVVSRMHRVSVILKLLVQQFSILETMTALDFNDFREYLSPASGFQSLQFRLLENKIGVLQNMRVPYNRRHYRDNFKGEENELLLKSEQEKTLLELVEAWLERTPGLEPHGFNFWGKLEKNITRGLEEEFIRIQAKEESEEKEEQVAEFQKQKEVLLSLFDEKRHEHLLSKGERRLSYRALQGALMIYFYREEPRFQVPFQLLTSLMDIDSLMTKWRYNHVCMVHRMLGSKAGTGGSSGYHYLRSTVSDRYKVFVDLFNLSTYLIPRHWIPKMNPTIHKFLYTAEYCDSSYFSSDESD
Method in brief: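 NFK formed over 30 min at RT from 200 μM L-tryptophan was measured by LCMS, normalized to d5-tryptophan, after compound (0.5 nM–10 μM, duplicates, 0.6% DMSO) was preincubated 30 min with 15 nM recombinant His-tagged TDO 19-407 in phosphate buffer pH 7. IC50 from four-parameter logistic fit; repeats averaged.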

| SMILES | IC50 [1] [nM] | IC50 [2] [nM] |
| --- | --- | --- |
| CC(C)(C)OC(=O)Nc1ccc(-n2cc(C(O)c3c(C4CC4)sc4cncn34)nn2)c(F)c1 (racemic) [Example 151, rac-(4-{4-[(2-Cyclopropyl-imidazo[5,1-b]thiazol-3-yl)-hydroxy-methyl]-[1,2,3]triazol-1-yl}-3-fluoro-phenyl)-carbamic Acid Tert-Butyl Ester] | 55.8 | > 10200 |
| OC(c1ccc(-c2ccccc2)cc1)c1c(C2CC2)sc2cncn12 (racemic) [Example 152, rac-Biphenyl-4-yl-(2-cyclopropyl-imidazo[5,1-b]thiazol-3-yl)-methanol] | 184 | > 10200 |
| OC(c1cccc(-c2ccccc2)c1)c1c(C2CC2)sc2cncn12 (racemic) [Example 153, rac-Biphenyl-3-yl-(2-cyclopropyl-imidazo[5,1-b]thiazol-3-yl)-methanol] | 2320 | > 10200 |
| Cc1sc2cncn2c1C(O)c1ccc(-c2ccccc2)s1 (racemic) [Example 154, rac-(2-Methyl-imidazo[5,1-b]thiazol-3-yl)-(5-phenyl-thiophen-2-yl)-methanol] | 366 | 7270 |
| Cc1sc2cncn2c1C(O)c1cnc(-c2ccccc2)s1 (racemic) [Example 155, rac-(2-Methyl-imidazo[5,1-b]thiazol-3-yl)-(2-phenyl-thiazol-5-yl)-methanol] | 734 | > 10200 |
| Cc1sc2cncn2c1C(O)c1cc(-c2ccccc2)no1 (racemic) [Example 156, rac-(2-Methyl-imidazo[5,1-b]thiazol-3-yl)-(3-phenyl-isoxazol-5-yl)-methanol] | 406 | > 10200 |
| OC(c1nnc(-c2ccccc2)o1)c1c(C2CC2)sc2cncn12 (racemic) [Example 157, rac-(2-Cyclopropyl-imidazo[5,1-b]thiazol-3-yl)-(5-phenyl-[1,3,4]oxadiazol-2-yl)-methanol] | 586 | > 10200 |
| OC(c1cnn(-c2ccccc2)n1)c1c(C2CC2)sc2cncn12 (racemic) [Example 158, rac-(2-Cyclopropyl-imidazo[5,1-b]thiazol-3-yl)-(2-phenyl-2H-[1,2,3]triazol-4-yl)-methanol] | 466 | 5440 |
| N#Cc1cccc(-c2ccc(C(O)c3c(C4CC4)sc4cncn34)s2)c1 (racemic) [Example 159, rac-3-{5-[(2-Cyclopropyl-imidazo[5,1-b]thiazol-3-yl)-hydroxy-methyl]-thiophen-2-yl}-benzonitrile] | 238 | 8310 |
| OC(c1ccc(-c2cccnc2)s1)c1c(C2CC2)sc2cncn12 (racemic) [Example 160, rac-(2-Cyclopropyl-imidazo[5,1-b]thiazol-3-yl)-(5-pyridin-3-yl-thiophen-2-yl)-methanol] | 230 | 5320 |
| COc1ccc(-c2ccc(C(O)c3c(C4CC4)sc4cncn34)s2)cc1 (racemic) [Example 161, rac-(2-Cyclopropyl-imidazo[5,1-b]thiazol-3-yl)-[5-(4-methoxy-phenyl)-thiophen-2-yl]-methanol] | 257 | > 10200 |
| OC(c1ccc(-c2ccc(C(F)(F)F)cc2)s1)c1c(C2CC2)sc2cncn12 (racemic) [Example 162, rac-(2-Cyclopropyl-imidazo[5,1-b]thiazol-3-yl)-[5-(4-trifluoromethyl-phenyl)-thiophen-2-yl]-methanol] | 1250 | > 10200 |
| OC(c1nc(-c2ccccc2)no1)c1c(C2CC2)sc2cncn12 (racemic) [Example 163, rac-(2-Cyclopropyl-imidazo[5,1-b]thiazol-3-yl)-(3-phenyl-[1,2,4]oxadiazol-5-yl)-methanol] | 496 | > 10200 |
| OC(c1ccc(-c2ccccc2)s1)c1c(C2CC2)sc2cncn12 (racemic) [Example 164, rac-(2-Cyclopropyl-imidazo[5,1-b]thiazol-3-yl)-(5-phenyl-thiophen-2-yl)-methanol] | 317 | > 10200 |
| OC(c1ccc(-c2cccc(C(F)(F)F)c2)s1)c1c(C2CC2)sc2cncn12 (racemic) [Example 165, rac-(2-Cyclopropyl-imidazo[5,1-b]thiazol-3-yl)-[5-(3-trifluoromethyl-phenyl)-thiophen-2-yl]-methanol] | 716 | > 10200 |
| COc1ccccc1-c1ccc(C(O)c2c(C3CC3)sc3cncn23)s1 (racemic) [Example 166, rac-(2-Cyclopropyl-imidazo[5,1-b]thiazol-3-yl)-[5-(2-methoxy-phenyl)-thiophen-2-yl]-methanol] | 587 | > 10200 |

| SMILES | IC50 [1] [nM] | IC50 [2] [nM] |
| --- | --- | --- |
| COc1cccc(-c2ccc(C(O)c3c(C4CC4)sc4cncn34)s2)c1 (racemic) [Example 167, rac-(2-Cyclopropyl-imidazo[5,1-b]thiazol-3-yl)-[5-(3-methoxy-phenyl)-thiophen-2-yl]-methanol] | 639 | > 10200 |
| OC(c1ccc(-c2ccncc2)s1)c1c(C2CC2)sc2cncn12 (racemic) [Example 168, rac-(2-Cyclopropyl-imidazo[5,1-b]thiazol-3-yl)-(5-pyridin-4-yl-thiophen-2-yl)-methanol] | 189 | 1060 |
| Cn1nccc1-c1ccc(C(O)c2c(C3CC3)sc3cncn23)s1 (racemic) [Example 169, rac-(2-Cyclopropyl-imidazo[5,1-b]thiazol-3-yl)-[5-(2-methyl-2H-pyrazol-3-yl)-thiophen-2-yl]-methanol] | 60 | 2940 |
| OC(c1ccc(-c2ccccc2C(F)(F)F)s1)c1c(C2CC2)sc2cncn12 (racemic) [Example 170, rac-(2-Cyclopropyl-imidazo[5,1-b]thiazol-3-yl)-[5-(2-trifluoromethyl-phenyl)-thiophen-2-yl]-methanol] | 550 | 3820 |
| OC(c1ncc(-c2ccccc2)s1)c1c(C2CC2)sc2cncn12 (racemic) [Example 171, rac-(2-Cyclopropyl-imidazo[5,1-b]thiazol-3-yl)-(5-phenyl-thiazol-2-yl)-methanol] | 578 | > 10200 |
| N#Cc1ccccc1-c1ccc(C(O)c2c(C3CC3)sc3cncn23)s1 (racemic) [Example 172, rac-2-{5-[(2-Cyclopropyl-imidazo[5,1-b]thiazol-3-yl)-hydroxy-methyl]-thiophen-2-yl}-benzonitrile] | 272 | 4080 |
| N#Cc1ccc(-c2ccc(C(O)c3c(C4CC4)sc4cncn34)s2)cc1 (racemic) [Example 173, rac-4-{5-[(2-Cyclopropyl-imidazo[5,1-b]thiazol-3-yl)-hydroxy-methyl]-thiophen-2-yl}-benzonitrile] | 732 | > 10200 |
| Cn1nncc1-c1ccc(C(O)c2c(C3CC3)sc3cncn23)s1 (racemic) [Example 174, rac-(2-Cyclopropyl-imidazo[5,1-b]thiazol-3-yl)-[5-(3-methyl-3H-[1,2,3]triazol-4-yl)-thiophen-2-yl]-methanol] | 279 | 7710 |
| OC(c1nnc(-c2ccccc2)s1)c1c(C2CC2)sc2cncn12 (racemic) [Example 175, rac-(2-Cyclopropyl-imidazo[5,1-b]thiazol-3-yl)-(5-phenyl-[1,3,4]thiadiazol-2-yl)-methanol] | 122 | > 10200 |
| OC(c1ccc(-c2ccc3[nH]ccc3c2)s1)c1c(C2CC2)sc2cncn12 (racemic) [Example 176, rac-(2-Cyclopropyl-imidazo[5,1-b]thiazol-3-yl)-[5-(1H-indol-5-yl)-thiophen-2-yl]-methanol] | 260 | > 10200 |
| OC(c1ccc(-c2cncc3ccccc23)s1)c1c(C2CC2)sc2cncn12 (racemic) [Example 177, rac-(2-Cyclopropyl-imidazo[5,1-b]thiazol-3-yl)-(5-isoquinolin-4-yl-thiophen-2-yl)-methanol] | 138 | 8620 |
| OC(c1cn(-c2ccccc2)cn1)c1c(C2CC2)sc2cncn12 (racemic) [Example 178, rac-(2-Cyclopropyl-imidazo[5,1-b]thiazol-3-yl)-(1-phenyl-1H-imidazol-4-yl)-methanol] | 515 | > 10200 |
| O=c1[nH]c2ccc(-n3cc(C(O)c4c(C5CC5)sc5cncn45)nn3)cc2o1 (racemic) [Example 179, rac-6-{4-[(2-Cyclopropyl-imidazo[5,1-b]thiazol-3-yl)-hydroxy-methyl]-[1,2,3]triazol-1-yl}-3H-benzooxazol-2-one] | 5.36 | > 10200 |
| CC(C)(C)OC(=O)Nc1ccc(-n2cc(C(O)c3c(C4CC4)sc4cncn34)nn2)cc1 (racemic) [Example 180, rac-(4-{4-[(2-Cyclopropyl-imidazo[5,1-b]thiazol-3-yl)-hydroxy-methyl]-[1,2,3]triazol-1-yl}-phenyl)-carbamic acid tert-butyl ester] | 33.6 | > 10200 |
| CCc1sc2cncn2c1C(O)c1cn(-c2ccc3[nH]c(=O)oc3c2)nn1 (racemic) [Example 181, rac-6-{4-[(2-Ethyl-imidazo[5,1-b]thiazol-3-yl)-hydroxy-methyl]-[1,2,3]triazol-1-yl}-3H-benzooxazol-2-one] | 7.86 | 4330 |
